For data set [1] the following is noted: clinical use; cited from earlier work.
Data set [2] relates to human aortic endothelial cells (HAECs). Kind of data set: Prostaglandin production in HAECs with/without fatty acids and AdCOX-1 transfection, EIA (Example II). It counts as cell-based. As to conditions: for enhancement of PGI2 production: HAECs, fatty acid stimulation (Discussion); for PGE1/PGE2 ratio: fatty acid-stimulated naïve HAECs; for PGE1 production / PGE2 production / PGI2 production: naïve (nontransfected) HAECs, 20 μM fatty acid, 45 minutes.

For data set [3], the system named is balloon-injured carotid arteries of New Zealand White rabbits. Format: in vivo, New Zealand White rabbit. Particulars: no vector (PBS), 20 μM fatty acid stimulation. The method, then:
Balloon injury and local delivery of the COX-1 gene to carotid arteries of New Zealand White (NZW) rabbits were done according to a protocol approved by the animal committee at the University of Texas Houston Health Science Center. As described previously^31, rabbit anesthesia was performed prior to each surgery. In brief, a no. 4 catheter introducer was introduced into the right femoral artery of anesthetized rabbits. Heparin at a dose of 150 units/kg was then administered to prevent arterial thrombosis during angioplasty. A balloon catheter (2.5×20 mm, Baxter Healthcare Corporation) was inserted into the femoral introducer and advanced to the right carotid artery with the assist of a guide wire under fluoroscopy. Balloon angioplasty was performed using 5 inflations to 8 atm for 30 second each time. One minute reperfusion was allowed between inflations. After angioplasty, the balloon was retracted 15 mm, and the proximal end of the damaged artery was ligated over the tip of the deflated angioplasty catheter with 2-0 silk over umbilical tape, to prevent further injury. All blood was removed from the damaged artery by repeated flushing with saline through the wire port of the angioplasty catheter. Then the distal portion of the damaged artery was ligated. After removing the remaining saline, 1×10^10 PFU/ml AdCOX, Adnull or 1 ml of PBS were gradually introduced into the isolated artery, respectively. After incubating the virus in the artery for 30 min, the artery was flushed to remove virus or PBS and washed with saline. Finally, all incisions were repaired and the rabbits were monitored until they had recovered from anesthesia. Upon completing of surgery, the cut regions of rabbit were repaired and rabbits were recovered.
Balloon injury and local delivery of the COX-1 gene to carotid arteries of NZW rabbits (n=24) were performed as described above. Eight rabbits were treated with AdCOX, and a like number were respectively treated with Adnull and PBS.
Three days after local gene delivery, balloon-injured rabbits were sacrificed, and their carotid arteries were harvested as 2-cm-long artery rings. Each artery ring was cut open to expose the lumen and then into 6 small pieces. The pieces were washed 3 times with Dulbecco's modified Eagle's medium (DME; Invitrogen) and incubated with DMEM supplemented with 20 μM AA or DGLA and 2% FBS at 37° C. for 45 minutes. In each treatment group, 4 rabbits provided injured arteries for AA stimulation and 4 provided them for DGLA stimulation. Supernatants were collected and used for prostaglandin assays as described above. Each arterial piece was then dried and weighed.

Data set [4] deals with human coronary artery smooth muscle cells (HCASMCs). Description: Prostaglandin production in HCASMCs with/without fatty acids and AdCOX-1 transfection, EIA (Example II). As to conditions: for PGE1/PGE2 ratio: fatty acid-stimulated naïve HCASMCs; for increase of PGE1 production by stimulation: naive HCASMCs vs no stimulation; for PGE1 production / PGE2 production / PGI2 production: naïve (nontransfected) HCASMCs, 20 μM fatty acid, 45 minutes. It counts as cell-based.

For data set [5], the system named is HAEC. Kind of data set: Western blot of COX-1 and COX-2 expression in HAEC. Format: cell-based, human. As to conditions: normal HAEC, 10 ng/ml for 24 hour. Background: Immunoblotting shows a protein as a band on a membrane.
Data set [6] concerns HCASMC. Description: Western blot of COX-1 and COX-2 expression in HCASMC. As to conditions: normal HCASMC, 10 ng/ml for 24 hour. Format: cell-based, human.
[7] abbreviates: naïve HCASMCs vs no stimulation.

Where “and” joins values, the source holds several entries; their conditions need not be identical. Equal entries are not always repeated. Where only a bound is given, the exact number is not on record here.

For `CCCCC(C)(O)C/C=C/[C@H]1[C@H](O)CC(=O)[C@@H]1CCCCCCC(=O)OC` (mixture of isomers) [Misoprostol], in data set [1], the “adverse side effects (including diarrhea and abdominal pain), patients affected” value is given as 14-40 % of patients.
For the compound `CCCCC/C=C\C/C=C\C/C=C\C/C=C\CCCC(=O)O` [AA, arachidonic acid], the “PGE1 production, times lower than in DGLA-stimulated counterparts” value in data set [2] (AA-stimulated naïve HAECs) is listed as more than 4 times. Further, in data set [2], the “enhancement of PGI2 production” value came out at 25%, the PGE1/PGE2 ratio was determined as 0.16, the PGE1 production is on record as 1.10 ± 0.41 ng/10^6 cells and the PGE2 production came to 6.17 ± 0.83 ng/10^6 cells. This compound also yielded a PGI2 production in data set [2] of 2.70 ± 0.13 ng/10^6 cells. Moreover, the “increase of PGI2 production by stimulation (in words)” value in data set [2] (naive HAECs vs no stimulation) is recorded as “one third”. In data set [2] (naïve HAECs vs no stimulation), the “increase of PGE2 production by stimulation” value is on record as approximately 2 fold and the “suppression of PGE1 production by stimulation” value is approximately 24%. In data set [3], the PGE1 production came out at 31 ± 19 pg/mg arterial tissue, the PGE2 production is on record as 74 ± 42 pg/mg arterial tissue and the PGI2 production stood at 432 ± 135 pg/mg arterial tissue. In data set [4] (AA-stimulated naïve HCASMCs), the “PGE1 production, times lower than in DGLA-stimulated counterparts” value is more than 2 times. In addition, in data set [4], the PGE1/PGE2 ratio came out at 0.27, the “increase of PGE1 production by stimulation” value (from here on “increase of PGE1 production”) is more than 2 fold, the PGE1 production was 14.04 ± 1.5 ng/10^6 cells and the PGE2 production was 51.8 ± 2.46 ng/10^6 cells. This compound displayed a PGI2 production in data set [4] of 37.12 ± 2.54 ng/10^6 cells. Also, in data set [4] (setting [7]), the “increase of PGE2 production by stimulation” value is recorded as approximately 2 fold and the “increase of PGI2 production by stimulation” value was approximately 3 fold.
As to `CCCCC/C=C\C/C=C\C/C=C\CCCCCCC(=O)O` [DGLA, dihommo-γ-linolenic acid], in data set [2], the “enhancement of PGI2 production” value came to 5%; the PGE1/PGE2 ratio is 3.22 and 3; the PGE1 production came to 5.00 ± 0.51 ng/10^6 cells; the PGE2 production came to 1.55 ± 0.37 ng/10^6 cells. For the same compound, the PGI2 production in data set [2] is on record as 2.15 ± 0.33 ng/10^6 cells. In addition, in data set [2] (naive HAECs vs no stimulation), the “increase of PGE1 production” value was more than 3 fold and the “increase of PGI2 production by stimulation (in words)” value is “only slightly”. For the same compound, in data set [2] (naïve HAECs vs no stimulation), the “suppression of PGE2 production by stimulation” value was 35-50%. Moreover, in data set [3], the PGE1 production was 47 ± 3.90 pg/mg arterial tissue, the PGE2 production is 51 ± 20 pg/mg arterial tissue and the PGI2 production is recorded as 443 ± 201 pg/mg arterial tissue. In data set [4], the PGE1/PGE2 ratio was 1.46 and 1.5; the “increase of PGE1 production” value is listed as more than 4 fold; the PGE1 production is 32.34 ± 2.41 ng/10^6 cells; the PGE2 production is given as 22.05 ± 1.45 ng/10^6 cells. Also, the PGI2 production in data set [4] is 9.30 ± 1.09 ng/10^6 cells. In data set [4] (setting [7]), the “lowering of PGI2 production by stimulation” value is reported as 28% and the “suppression of PGE2 production by stimulation” value was 35-50%.
In the case of “IL-1β: interleukin-1β, used to induce COX-2 in normal cells”, the “COX-2 induction (immunoblot)” value in data set [5] and in data set [6] was “capable of prompting COX-2 induction” in each case.

The values above are taken from US20050130925A1, “Method and composition for enhancing PGE1 production in vascular endothelial and smooth muscle cells” (The Board of Regents of the University of Texas System, priority 2003, published 2005).
